This test deals with phosphonoacetate hydrolase (PAc hydrolase) (Pseudomonas fluorescens, UniProt Q51782). The class given is biochemical.

The structures appear in SMILES notation.

Chain of phosphonoacetate hydrolase (PAc hydrolase) (Q51782 2-407): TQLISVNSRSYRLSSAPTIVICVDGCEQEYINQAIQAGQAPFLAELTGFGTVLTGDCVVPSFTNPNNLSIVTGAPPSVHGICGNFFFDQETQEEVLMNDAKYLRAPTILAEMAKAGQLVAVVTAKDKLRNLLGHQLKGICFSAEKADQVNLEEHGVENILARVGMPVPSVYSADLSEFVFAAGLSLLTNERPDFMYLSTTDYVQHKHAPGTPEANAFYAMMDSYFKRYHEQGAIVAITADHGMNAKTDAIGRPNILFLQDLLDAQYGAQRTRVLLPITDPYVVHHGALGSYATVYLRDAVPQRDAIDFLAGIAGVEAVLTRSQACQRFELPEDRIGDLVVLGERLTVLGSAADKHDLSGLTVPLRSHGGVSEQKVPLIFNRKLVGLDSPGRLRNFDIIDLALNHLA

Usually Ki stands for a dissociation constant, usually derived from enzyme kinetics or from competition with a known ligand. Low values mean a stronger hold on the target, high ones a looser hold on the target. `O=C(O)C(=O)CP(=O)(O)O` [phosphonopyruvate] returned a Ki of 1200 ± 800 µM.

For the origin of these results see paper PMC3102601 (2011).
